Assay results taken from patent US8288342B2, “Methods for treating vasomotor symptoms in castrated prostatic cancer patients with low dose cyproterone acetate” (priority 2008, dated 2012).

Columns and labels:
[1] = test system: hot flashes and outbreaks of sweating after orchiectomy; conditions: CPA 150 mg daily, cited from earlier work
[2] = test system: hot flashes in castrated prostatic cancer patients; assay: Prior study of 50 mg and 100 mg CPA: hot flash efficacy; assay type: in vivo, human; conditions: N 236
Method: (§1) The results of this study were compared with results from a prior study in which the efficacy of 50 mg and 100 mg of CPA was investigated. Efficacy data for the 50 mg and 100 mg studies showing a reduction in average daily number of moderate to severe hot flashes, and a reduction in average severity of hot flashes is shown in FIGS. 6 and 7, respectively. A comparison of the percent of patients with complete disappearance of all hot flashes at 12 weeks of treatment across studies is shown in Table 10.

hot flashes = conditions: 37 subjects with bothersome hot flashes; cited from earlier work
[3] = Prior study of 50 mg and 100 mg CPA: discontinuation rates; assay type: in vivo, human
Method: as §1

[4] = Same Phase 2 trial: adverse events and discontinuation; assay type: in vivo, human
Source text: The overall study duration for each subject was approximately 19 weeks, which included a screening period of up to 4 weeks, a one-week placebo run-in period, a 12-week double-blind period, and a follow-up telephone call two weeks after the last dose of study medication.
After providing informed consent on the first day of the screening period, all subjects had medical and hot flash history recorded, a physical examination, a chest x-ray and Doppler to assess known thromboembolic risk factors, an ECG to evaluate cardiac risks, and clinical laboratory evaluations. Once all results of tests conducted during the screening period were obtained, subjects who met all of the inclusion criteria and none of the exclusion criteria were eligible to enter the one-week, single-blind, placebo run-in period. […] After beginning study medication, subjects returned for study visits at weeks 2, 4, 8, and 12. Two weeks after the final treatment visit, a telephone follow-up call was conducted to record and evaluate adverse events (“AE”s) since the last study visit.

[5] = Same Phase 2 trial: cyproterone acetate and 15β-OH cyproterone acetate concentrations by treatment and visit; assay type: in vivo, human; conditions: 5 mg/day, 15 mg/day and 25 mg/day
Method: FIG. 3 depicts schematically the analysis of cyproterone acetate and 15β-OH cyproterone acetate (a breakdown product of cyproterone acetate that contributes to the effectiveness of the drug) concentration in the patients who were treated.

For `CC(=O)O[C@]1(C(C)=O)CC[C@H]2[C@@H]3C=C(Cl)C4=CC(=O)[C@@H]5C[C@@H]5[C@]4(C)[C@H]3CC[C@@]21C` [CPA, cyproterone acetate], the “Frequency and severity in subjects who continued to experience hot flashes or sweating” value [1] is given as “decreased”, the “Subjects with outbreaks of sweating” value ([1]; placebo 47%) is given as 24% and the “Subjects experiencing hot flashes” value ([1]; placebo 61%) is given as 33%. For the same compound, the “% With Complete Disappearance of All Hot Flashes at 12 Weeks/End-of-Treatment” value ([2]; CPA 50 mg) was 38.5%, the “% With Complete Disappearance of All Hot Flashes at 12 Weeks/End-of-Treatment” value ([2]; CPA 100 mg) was 46.0% and the “Therapeutic efficacy: reduction in hot flashes” value (hot flashes) was 80%. The “12-week double-blind discontinuation due to Adverse Event, number” value (shortened to “12-week double-blind discontinuation due”) ([3]; CPA 50 mg (N = 246)) was 13, the “12-week double-blind discontinuation rate due to Adverse Event” value ([3]; CPA 50 mg (N = 246)) was “(5.3%)” and the “12-week double-blind discontinuation due” value ([3]; CPA 100 mg (N = 245)) was 24. For the same compound, the “12-week double-blind discontinuation rate due to Adverse Event” value ([3]; CPA 100 mg (N = 245)) was “(9.8%)”, the “12-week double-blind discontinuation due” value ([4]; CPA 5 mg (N = 81)) was 2 and the “12-week double-blind discontinuation rate due to Adverse Event” value ([4]; CPA 5 mg (N = 81)) was “(2.5%)”. The “Treatment-emergent AE Constipation, %” value ([4]; CPA 5 mg (N = 81)) was 0.00%, the “Treatment-emergent AE Depression, %” value ([4]; CPA 5 mg (N = 81)) was 1.23% and the “Treatment-emergent AE Diarrhoea, %” value ([4]; CPA 5 mg (N = 81)) was 2.47%. For the same compound, the “Treatment-emergent AE Dizziness, %” value ([4]; CPA 5 mg (N = 81)) was 2.47%, the “Treatment-emergent AE Dyspnoea, %” value ([4]; CPA 5 mg (N = 81)) was 3.70% and the “Treatment-emergent AE Fatigue, %” value ([4]; CPA 5 mg (N = 81)) was 1.23%. For the same compound, the “Treatment-emergent AE Headache, %” value ([4]; CPA 5 mg (N = 81)) was 3.70%, the “Treatment-emergent AE Influenza, %” value ([4]; CPA 5 mg (N = 81)) was 0.00% and the “Treatment-emergent AE Nasopharyngitis, %” value ([4]; CPA 5 mg (N = 81)) was 3.70%. For the same compound, the “Treatment-emergent AE Nausea, %” value ([4]; CPA 5 mg (N = 81)) was 0.00%, the “Treatment-emergent AE Oedema peripheral, %” value ([4]; CPA 5 mg (N = 81)) was 1.23% and the “Treatment-emergent AE Pain in extremity, %” value ([4]; CPA 5 mg (N = 81)) was 3.70%. The “Treatment-emergent AE Urinary tract infection, %” value ([4]; CPA 5 mg (N = 81)) was 1.23%, the “Treatment-emergent AE Vomiting, %” value ([4]; CPA 5 mg (N = 81)) was 1.23% and the “Treatment-related AE Constipation, %” value ([4]; CPA 5 mg (N = 81)) was 0.00%. The “Treatment-related AE Dyspnoea, %” value ([4]; CPA 5 mg (N = 81)) was 0.00%, the “Proportion of subjects experiencing treatment-emergent AEs, rank among groups” value ([4]; CPA 5 mg/day vs placebo, 15 and 25 mg/day) was “fewest proportion of subjects” and the “12-week double-blind discontinuation due” value ([4]; CPA 15 mg (N = 99)) was 5. The “12-week double-blind discontinuation rate due to Adverse Event” value ([4]; CPA 15 mg (N = 99)) was “(5.1%)”, the “Treatment-emergent AE Constipation, %” value ([4]; CPA 15 mg (N = 99)) was 6.06% and the “Treatment-emergent AE Depression, %” value ([4]; CPA 15 mg (N = 99)) was 4.04%. The “Treatment-emergent AE Diarrhoea, %” value ([4]; CPA 15 mg (N = 99)) was 6.06%, the “Treatment-emergent AE Dizziness, %” value ([4]; CPA 15 mg (N = 99)) was 7.07% and the “Treatment-emergent AE Dyspnoea, %” value ([4]; CPA 15 mg (N = 99)) was 7.07%. The “Treatment-emergent AE Fatigue, %” value ([4]; CPA 15 mg (N = 99)) was 6.06%, the “Treatment-emergent AE Gynaecomastia, %” value ([4]; CPA 15 mg (N = 99)) was 2.02% and the “Treatment-emergent AE Headache, %” value ([4]; CPA 15 mg (N = 99)) was 2.02%. For the same compound, the “Treatment-emergent AE Influenza, %” value ([4]; CPA 15 mg (N = 99)) was 1.01%, the “Treatment-emergent AE Nasopharyngitis, %” value ([4]; CPA 15 mg (N = 99)) was 3.03% and the “Treatment-emergent AE Nausea, %” value ([4]; CPA 15 mg (N = 99)) was 2.02%. The “Treatment-emergent AE Oedema peripheral, %” value ([4]; CPA 15 mg (N = 99)) was 1.01%, the “Treatment-emergent AE Pain in extremity, %” value ([4]; CPA 15 mg (N = 99)) was 3.03% and the “Treatment-emergent AE Urinary tract infection, %” value ([4]; CPA 15 mg (N = 99)) was 0.00%. For the same compound, the “Treatment-emergent AE Vomiting, %” value ([4]; CPA 15 mg (N = 99)) was 0.00%, the “Treatment-related AE Constipation, %” value ([4]; CPA 15 mg (N = 99)) was 2.02% and the “Treatment-related AE Dyspnoea, %” value ([4]; CPA 15 mg (N = 99)) was 4.04%. For the same compound, the “12-week double-blind discontinuation due” value ([4]; CPA 25 mg (N = 87)) was 7, the “12-week double-blind discontinuation rate due to Adverse Event” value ([4]; CPA 25 mg (N = 87)) was “(8.0%)” and the “Treatment-emergent AE Constipation, %” value ([4]; CPA 25 mg (N = 87)) was 3.45%. For the same compound, the “Treatment-emergent AE Depression, %” value ([4]; CPA 25 mg (N = 87)) was 1.15%, the “Treatment-emergent AE Diarrhoea, %” value ([4]; CPA 25 mg (N = 87)) was 3.45% and the “Treatment-emergent AE Dizziness, %” value ([4]; CPA 25 mg (N = 87)) was 4.60%. For the same compound, the “Treatment-emergent AE Dyspnoea, %” value ([4]; CPA 25 mg (N = 87)) was 8.05%, the “Treatment-emergent AE Fatigue, %” value ([4]; CPA 25 mg (N = 87)) was 1.15% and the “Treatment-emergent AE Gynaecomastia, %” value ([4]; CPA 25 mg (N = 87)) was 4.60%. For the same compound, the “Treatment-emergent AE Headache, %” value ([4]; CPA 25 mg (N = 87)) was 3.45%, the “Treatment-emergent AE Influenza, %” value ([4]; CPA 25 mg (N = 87)) was 3.45% and the “Treatment-emergent AE Nasopharyngitis, %” value ([4]; CPA 25 mg (N = 87)) was 5.75%. For the same compound, the “Treatment-emergent AE Nausea, %” value ([4]; CPA 25 mg (N = 87)) was 2.30%, the “Treatment-emergent AE Oedema peripheral, %” value ([4]; CPA 25 mg (N = 87)) was 5.75% and the “Treatment-emergent AE Pain in extremity, %” value ([4]; CPA 25 mg (N = 87)) was 0.00%. For the same compound, the “Treatment-emergent AE Urinary tract infection, %” value ([4]; CPA 25 mg (N = 87)) was 3.45%, the “Treatment-emergent AE Vomiting, %” value ([4]; CPA 25 mg (N = 87)) was 2.30% and the “Treatment-related AE Constipation, %” value ([4]; CPA 25 mg (N = 87)) was 3.45%. For the same compound, the “Treatment-related AE Dyspnoea, %” value ([4]; CPA 25 mg (N = 87)) was 4.60% and the “Cyproterone acetate and 15β-OH cyproterone acetate concentration in treated patients” value [5] was “dose proportional response”.
